From US8686184B2, “Neprilysin inhibitors” (Theravance, Inc., priority 2011, dated 2014)

target: T1, human neprilysin (EC 3.4.24.11; NEP) (Homo sapiens, UniProt P08473); assay: In vitro enzyme inhibition assay at human NEP (fluorogenic peptide substrate); assay type: biochemical; details: recombinant human NEP; 37° C.; substrate Mca-D-Arg-Arg-Leu-Dap-(Dnp)-OH 10 μM; values given as ranges; read-out: pKi values at human NEP (converted)
T1 construct: purchased R&D Systems, Minneapolis, Minn; 1182-ZN
T1 sequence (P08473 52-750 limits assumed): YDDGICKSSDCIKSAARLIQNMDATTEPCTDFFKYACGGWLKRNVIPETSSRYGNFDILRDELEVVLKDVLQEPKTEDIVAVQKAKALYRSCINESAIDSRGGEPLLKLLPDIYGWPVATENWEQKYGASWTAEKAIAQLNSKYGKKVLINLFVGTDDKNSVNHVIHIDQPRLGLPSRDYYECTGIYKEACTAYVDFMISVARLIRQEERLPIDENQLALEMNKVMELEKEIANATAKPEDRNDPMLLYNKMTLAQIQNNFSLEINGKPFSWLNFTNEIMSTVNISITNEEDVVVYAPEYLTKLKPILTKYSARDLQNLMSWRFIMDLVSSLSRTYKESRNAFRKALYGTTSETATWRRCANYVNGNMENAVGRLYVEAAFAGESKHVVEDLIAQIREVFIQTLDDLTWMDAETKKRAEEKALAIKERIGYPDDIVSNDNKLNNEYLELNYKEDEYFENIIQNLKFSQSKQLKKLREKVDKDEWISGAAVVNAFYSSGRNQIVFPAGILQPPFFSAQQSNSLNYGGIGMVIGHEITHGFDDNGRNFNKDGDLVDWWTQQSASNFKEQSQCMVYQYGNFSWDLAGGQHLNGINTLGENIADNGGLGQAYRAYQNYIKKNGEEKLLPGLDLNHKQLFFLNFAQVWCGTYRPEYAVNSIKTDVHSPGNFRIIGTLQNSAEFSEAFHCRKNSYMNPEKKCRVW
Procedure, shortened: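 Recombinant human NEP pre-incubated 30 min at 37 °C with compound (10 μM to 20 pM), then cleaved 20 min at 37 °C with 10 μM Mca-D-Arg-Arg-Leu-Dap-(Dnp)-OH in HEPES pH 7.5, NaCl, Tween-20, 10 μM ZnSO4. Stopped with acetic acid; fluorescence Ex 320/Em 405 nm; apparent Ki from v=v0/[1+(I/K′)] fit, reported as pKi.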

| SMILES | Ki [nM] |
| --- | --- |
| O=C(N[C@H](Cc1ccccc1)[C@@H](O)C(=O)O)c1cccc(-c2ccccc2C(=O)O)c1 [Example 10-9, 3′-((1R,2R)-1-Benzyl-2-carboxy-2-hydroxy-ethylcarbamoyl)-biphenyl-2-carboxylic acid] | 12.6 to 100 |
| Cc1ccc(C(=O)N[C@@H](CC(=O)O)Cc2ccccc2C(F)(F)F)cc1-c1ccccc1C(=O)O [Example 14, 5′-[(R)-2-Carboxy-1-(2-trifluoromethyl-benzyl)-ethylcarbamoyl]-2′-methyl-biphenyl-2-carboxylic Acid] | 1.26 to 10 |
| O=C(N[C@H](Cc1ccccc1)[C@@H](O)C(=O)O)c1cccc(-c2ncccc2C(=O)O)c1 [Example 10-63, 2-[3-((1R,2R)-1-Benzyl-2-carboxy-2-hydroxy-ethylcarbamoyl)-phenyl]-nicotinic acid] | 1.26 to 10 |
| CC1=NN(c2ccc(C(=O)N[C@H](Cc3ccccc3Cl)[C@H](O)C(=O)O)cc2)C(=O)C1 [Example 6-15, (2S,3R)-4-(2-Chlorophenyl)-2-hydroxy-3-[4-(3-methyl-5-oxo-4,5-dihydro-pyrazol-1-yl)-benzoylamino]-butyric acid] | 1.26 to 10 |
| CC(C)c1ccc(C(=O)N[C@H](Cc2ccccc2)[C@@H](O)C(=O)O)cc1-c1ccccc1C(=O)O [Example 10-17, 5′-((1R,2R)-1-Benzyl-2-carboxy-2-hydroxy-ethylcarbamoyl)-2′-isopropyl-biphenyl-2-carboxylic acid] | 1.26 to 10 |
| O=C(O)Cc1ccccc1-c1ccc(C(=O)N[C@@H](CC(=O)O)Cc2ccccc2Cl)cc1 [Example 13-4, (R)-3-[(2′-Carboxymethyl-biphenyl-4-carbonyl)-amino]-4-(2-chloro-phenyl)-butyric acid] | 12.6 to 100 |

Now from value to compound:

| Ki [nM] | SMILES |
| --- | --- |
| 1.26 to 10 | O=C(N[C@H](Cc1ccccc1Cl)[C@@H](O)C(=O)O)c1ccc(-c2ccccc2C(=O)O)c(F)c1 [Example 6-9, 4′-[(1R,2R)-2-Carboxy-1-(2-chlorobenzyl)-2-hydroxy-ethylcarbamoyl]-2′-fluoro-biphenyl-2-carboxylic acid] |
| 12.6 to 100 | Cc1cc(C)n(-c2cc(C(=O)N[C@H](Cc3ccccc3)[C@@H](O)C(=O)O)ccc2F)n1 [Example 10-6, (2R,3R)-3-[3-(3,5-Dimethylpyrazol-1-yl)-4-fluorobenzoylamino]-2-hydroxy-4-phenyl-butyric acid] |
| 12.6 to 100 | O=C(N[C@H](Cc1ccccc1)[C@@H](O)C(=O)O)c1ccc(N2CCOCC2)c(-c2ccccc2C(=O)O)c1 [Example 10-21, 5′-((1R,2R)-1-Benzyl-2-carboxy-2-hydroxy-ethylcarbamoyl)-2′-morpholin-4-yl-biphenyl-2-carboxylic acid] |
| 12.6 to 100 | O=C(N[C@H](Cc1ccccc1)[C@@H](O)C(=O)O)c1cccc(-c2cc(Cl)ccc2C(=O)O)c1 [Example 10-12, 3′-((1R,2R)-1-Benzyl-2-carboxy-2-hydroxy-ethylcarbamoyl)-5-chloro-biphenyl-2-carboxylic acid] |
| 12.6 to 100 | CCCCNC(=O)Nc1cc(C(=O)N[C@H](Cc2ccccc2)[C@@H](O)C(=O)O)ccc1CC [Example 10-73, (2R,3R)-3-[3-(3-Butyl-ureido)-4-ethyl-benzoylamino]-2-hydroxy-4-phenyl-butyric acid] |
| 12.6 to 100 | O=C(Nc1ccc(C(=O)N[C@H](Cc2ccccc2)[C@@H](O)C(=O)O)cc1)Nc1sccc1C(=O)O [Example 10-52] |
| 12.6 to 100 | Cc1ccc(C(=O)N[C@H](Cc2ccccc2)[C@@H](O)C(=O)O)cc1-n1ccc(C(=O)O)n1 [Example 10-8, 1-[5-((1R,2R)-1-Benzyl-2-carboxy-2-hydroxyethylcarbamoyl)-2-methyl-phenyl]-1H-pyrazole-3-carboxylic acid] |
| 12.6 to 100 | Cc1ccc(C(=O)N[C@H](Cc2ccccc2)[C@@H](O)C(=O)O)cc1-c1ccccc1CC(=O)O [Example 10-20, (2R,3R)-3-[(2′-Carboxymethyl-6-methyl-biphenyl-3-carbonyl)-amino]-2-hydroxy-4-phenyl-butyric acid] |
